# Laboratory results as given in patent publication US20020192703A1, “Immunoassay reagents and methods for determination of LSD and LSD metabolites” (priority 1995, published 2002).
# Where two headings read alike, the source gives them in different places.
# Tested on: monoclonal antibody 19A7
# Format: binding, mice
# Procedure: Cross-reactivity was tested by spiking various potential cross-reactants into human urine containing a preservative.
# [1] = Concentration Added 10,000 ng/ml, 100 × observed dose / concentration added
# [2] = Concentration Added 10,000 ng/ml, in human urine
# [3] = Concentration Added 500,000 ng/ml, 100 × observed dose / concentration added
# [4] = Concentration Added 500,000 ng/ml, in human urine
# [5] = Concentration Added 100,000 ng/ml, 100 × observed dose / concentration added
# [6] = Concentration Added 100,000 ng/ml, in human urine
smiles,measurement,setting,value
CCN(CC)C(=O)[C@@H]1C=C2c3cccc4c3C(O)(C[C@H]2N(C)C1)C(=O)N4 (stereo partly drawn) [2oxo-3hydroxy LSD],% Cross-Reactivity,"Concentration Added 30 ng/ml, 100 × observed dose / concentration added",1.82%
same,Concentration Observed,"Concentration Added 30 ng/ml, in human urine",0.55 ng/mL
CCCCCc1cc(O)c2c(c1)OC(C)(C)[C@@H]1CCC(C(=O)O)=C[C@@H]21 [11-nor-Δ^9-THC-COOH],% Cross-Reactivity,[1],<0.0001%
same,Concentration Observed,[2],0.0 ng/mL
CC(=O)Oc1ccccc1C(=O)O [Acetylsalicylic Acid],% Cross-Reactivity,[3],<0.00001%
same,Concentration Observed,[4],0.0 ng/mL
CC(C)C[C@H]1C(=O)N2CCC[C@H]2[C@]2(O)O[C@](NC(=O)[C@@H]3C=C4c5cccc6[nH]cc(c56)C[C@H]4N(C)C3)(C(C)C)C(=O)N12 [Alpha Ergotryptine],% Cross-Reactivity,[3],0.00000%
same,Concentration Observed,[4],0.25 ng/mL
CC1(C)S[C@@H]2[C@H](NC(=O)[C@H](N)c3ccc(O)cc3)C(=O)N2[C@H]1C(=O)O [Amoxicillin],% Cross-Reactivity,,<0.00001%
same,Concentration Observed,,0.0 ng/mL
CC(N)Cc1ccccc1 (stereo not drawn) [Amphetamine],% Cross-Reactivity,[3],<0.00001%
same,Concentration Observed,[4],0.0 ng/mL
CN1[C@H]2CC[C@@H]1[C@@H](C(=O)O)[C@@H](OC(=O)c1ccccc1)C2 [Benzoylecgonine],% Cross-Reactivity,[3],<0.00001%
same,Concentration Observed,[4],0.0 ng/mL
C[C@H](CS)C(=O)N1CCC[C@H]1C(=O)O [Captopril],% Cross-Reactivity,[3],<0.00001%
same,Concentration Observed,[4],0.0 ng/mL
CN/C(=N/CCSCc1nc[nH]c1C)NC#N [Cimetidine],% Cross-Reactivity,,<0.00001%
same,Concentration Observed,,0.0 ng/mL
COc1ccc2c3c1O[C@H]1[C@@H](O)C=C[C@H]4[C@@H](C2)N(C)CC[C@@]341 [Codeine],% Cross-Reactivity,[3],<0.00001%
same,Concentration Observed,[4],0.0 ng/mL
CN1C(=O)CN=C(c2ccccc2)c2cc(Cl)ccc21 [Diazepam],% Cross-Reactivity,,<0.00001%
same,Concentration Observed,,0.0 ng/mL
C[C@H]1O[C@@H](O[C@H]2[C@@H](O)C[C@H](O[C@H]3[C@@H](O)C[C@H](O[C@H]4CC[C@@]5(C)[C@H](CC[C@@H]6[C@@H]5C[C@@H](O)[C@]5(C)[C@@H](C7=CC(=O)OC7)CC[C@]65O)C4)O[C@@H]3C)O[C@@H]2C)C[C@H](O)[C@@H]1O [Digoxin],% Cross-Reactivity,[5],<0.00001%
same,Concentration Observed,[6],0.0 ng/mL
CN1C[C@H](C(=O)N[C@]2(C)O[C@@]3(O)[C@@H]4CCCN4C(=O)[C@H](Cc4ccccc4)N3C2=O)C[C@@H]2c3cccc4[nH]cc(c34)C[C@H]21 [Dihydroergotaimine],% Cross-Reactivity,"Concentration Added 125,000 ng/ml, 100 × observed dose / concentration added",0.00005%
same,Concentration Observed,"Concentration Added 125,000 ng/ml, in human urine",≦0.01 ng/mL
COC(=O)[C@@H]1[C@H]2CC[C@@H](C[C@@H]1O)N2C [Ecogonine Methyl Ester],% Cross-Reactivity,[5],0.00000%
same,Concentration Observed,[6],≦0.01 ng/mL
CN1[C@H]2CC[C@@H]1[C@@H](C(=O)O)[C@@H](O)C2 [Ecogonine],% Cross-Reactivity,[5],0.00000%
same,Concentration Observed,[6],≦0.01 ng/mL
CCOC(=O)[C@H](CCc1ccccc1)N[C@@H](C)C(=O)N1CCC[C@H]1C(=O)O [Enalapril],% Cross-Reactivity,[3],<0.00001%
same,Concentration Observed,[4],0.0 ng/mL
C[C@@H](CO)NC(=O)[C@@H]1C=C2c3cccc4[nH]cc(c34)C[C@H]2N(C)C1 [Ergonovine],% Cross-Reactivity,[1],0.007%
same,Concentration Observed,[2],0.58 ng/mL
CN1C[C@H](C(=O)N[C@]2(C)O[C@@]3(O)[C@@H]4CCCN4C(=O)[C@H](Cc4ccccc4)N3C2=O)C=C2c3cccc4[nH]cc(c34)C[C@H]21 [Ergotamine],% Cross-Reactivity,[5],0.00000%
same,Concentration Observed,[6],≦0.01 ng/mL
